Test system: human umbilical vein endothelial cells (HUVECs)
Experiment: MTT assay, effect of VEGF and Composition A1 on cell proliferation
Format: cell-based
Conditions: 0, 24, 48 and 72 hours, control group as basis
Protocol: Recombinant human vascular endothelial growth factor (VEGF) was purchased from R&D systems; Cat No. 293-VE. The HUVECs were used in the experiments. The cells were seeded in a 24-well plate at a density of 2×10^4 cells/well. The experiments include control group (not treated with VEGF) and the groups respectively treated with 1 ng/mL VEGF, 5 ng/mL VEGF, 10 ng/mL VEGF and 20 ng/mL VEGF for 0 hour, 24 hours, 48 hours and 72 hours. Each group was triplicated. The MTT assays were performed and values of OD 565 were measured in order to observe the effect of VEGF on cell growth.

Substance: VEGF
- cell number / cell proliferation of HUVEC (OD 565, MTT) (1 ng/mL VEGF): not significant
- cell number / cell proliferation of HUVEC (OD 565, MTT) (5 ng/mL VEGF): not significant
- cell number / cell proliferation of HUVEC (OD 565, MTT) (10 ng/mL VEGF): increased
- cell number / cell proliferation of HUVEC (OD 565, MTT) (20 ng/mL VEGF): increased
